Experimental data reported in US20250302862A1, “SMALL RNA DRUG FOR INHIBITING ACTIVITY OF CANCER CELLS” (Institute of Basic Medical Sciences Chinese Academy of …, priority 2022, published 2025).

Assays:
[1] = tested on: A549 cells; experiment: Concentration-dependent proliferation inhibition, MTS; type: cell-based, human; details: concentration gradient, MTS 48 h after transfection
Protocol: (§1) 1) H460 and A549 cells with a cell density of more than 90% in 10 cm^2 dishes were plated in 96-well plates according to the cell growth rate, and transfected after 12 h, and the groups (3 wells per group) were divided as follows: • BLANK group: 20 uL of opti-MEM • negative control group (NC group) and experimental group: • A. 10 uL of opti-MEM and 0.2 uL of iMax were mixed well for 5 min • B. 10 uL of opti-MEM and small RNA were mixed well (the concentration gradient of H460 cell experimental group was set as: 0.01 noml/L, 0.03 noml/L, 0.1 noml/L, 0.39 noml/L, 0.78 noml/L, 1.56 noml/L, 3.125 noml/L, 6.25 noml/L, 12.5 noml/L, 25 noml/L, 50 noml/L, 100 noml/L; the concentration gradient of A549 cell experimental group was set as: 0.01 noml/L, 0.03 noml/L, 0.1 noml/L, 0.3 noml/L, 1 noml/L, 3 noml/L, 10 noml/L, 30 noml/L, 100 noml/L, 300 noml/L; the final concentration of sRNA in NC group was 100 noml/L) • C. solution A and solution B were mixed well and let stand for 15 min, and then was added at a 20 ul/well system • Note: 100 uL of nuclease-free water was added to 2 nmol of small RNA dry powder for dissolution at a storage concentration of 20 umol/L
(§2) 2) Detection of cell viability: MTS detection was performed after 48 h.
(§3) Formulation of MTS detection solution was as follows: opti-MEM:MTS A solution:MTS B solution=100:20:1. After removing the supernatant, 100 uL of MTS detection solution was added to each well and incubated for 0.5-2 h. Absorbance values at wavelengths of 490 nm and 630 nm were measured in a microplate reader.
(§4) 1) H460 and A549 cells with a cell density of more than 90% in 10 cm^2 dishes were plated in 96-well plates according to the cell growth rate, and transfected after 12 h, and the groups (3 wells per group) were divided as follows: • blank control group: 20 uL of opti-MEM • negative control group (NC group) and experimental group: • A. 10 uL of opti-MEM and 2 uL of iMax were mixed well for 5 min • B. 10 uL of opti-MEM and small RNA were mixed well (the concentration gradient of H460 cell experimental group was set as: 0.01 noml/L, 0.03 nmol/L, 0.1 noml/L, 0.3 noml/L, 1 noml/L, 3 noml/L, 10 noml/L, 30 noml/L, 100 noml/L, 300 noml/L, 400 noml/L, 500 noml/L; the concentration gradient of A549 cell experimental group was set as: 0.01 noml/L, 0.03 nmol/L, 0.1 noml/L, 0.3 noml/L, 1 noml/L, 3 noml/L, 10 noml/L, 30 noml/L, 100 noml/L, 300 noml/L; the final concentration of sRNA in NC group was 100 noml/L) • C. solution A and solution B were mixed well and let stand for 15 min, and then was added to each well at a 20 uL system • positive group: the concentration of paclitaxel was adjusted to 100 nmol/L • Note: 100 uL of nuclease-free water was added to 2 nmol of small RNA dry powder for dissolution at a storage concentration of 20 umol/L
(§5) 1) H460 and A549 cells with a cell density of more than 90% in 10 cm^2 dishes were plated in 96-well plates according to the cell growth rate, and transfected after 12 h, and the groups (3 wells per group) were divided as follows: • blank control group: 20 uL of opti-MEM • negative control group (NC group) and experimental group: • A. 10 uL of opti-MEM and 0.2 uL of iMax were mixed well for 5 min • B. 10 uL of opti-MEM and small RNA were mixed well (the concentration gradient of H460 cell experimental group was set as: 0.1 noml/L, 0.3 noml/L, 1 noml/L, 3 noml/L, 10 noml/L, 30 noml/L, 100 noml/L, 300 noml/L; the concentration gradient of A549 cell experimental group was set as: 0.01 noml/L, 0.03 nmol/L, 0.1 noml/L, 0.3 noml/L, 1 noml/L, 3 noml/L, 10 noml/L, 30 noml/L, 100 noml/L, 300 noml/L; the final concentration of sRNA in NC group was 100 noml/L) • C. solution A and solution B were mixed well and let stand for 15 min, and then a 20 uL system was added at a 20 uL system • Note: 100 uL of nuclease-free water was added to 2 nmol of small RNA dry powder for dissolution at a storage concentration of 20 umol/L

[2] = tested on: H460 cells; experiment: as above; type: cell-based, human; details: concentration gradient, MTS 48 h after transfection
Protocol: as §1, §2, §3, §4, §5

HQi-sRNA-2: small RNA derived from Scutellaria baicalensis, sequence AUGGUUCGAUUCCGGAGAGGG (listed as RNA, chemistry not given here)
proliferation-inhibiting function (cell activity, MTS) [1]: concentration-dependent | proliferation-inhibiting function (cell activity, MTS) [2]: concentration-dependent

MDM-sRNA-39: small RNA derived from Maytenus hookeri, sequence GGGAUUGUAGUUCAAUUGGUCAGAGCACC (listed as RNA, chemistry not given here)
proliferation-inhibiting function (cell activity, MTS) [1]: concentration-dependent | proliferation-inhibiting function (cell activity, MTS) [2]: concentration-dependent

MDM-sRNA-163: small RNA derived from Maytenus hookeri, sequence UGACUCUAGUCCGACUUUGUGAAAUGACU (listed as RNA, chemistry not given here)
proliferation-inhibiting function (cell activity, MTS) [1]: concentration-dependent | proliferation-inhibiting function (cell activity, MTS) [2]: concentration-dependent
